In publication PMC6602303, “Yeast ceramide synthases, Lag1 and Lac1, have distinct substrate specificity” (Journal of Cell Science, 2019) one finds Km data, which are given here for 2 substances.

One assay has as its target T1, Lac1 (Saccharomyces cerevisiae, UniProt P28496).
T1 construct: native full-length protein in cryo-milled lysate of Δlag1Δsur2 yeast; with Ceramide synthase subunit LIP1
T1 sequence (P28496 2-418): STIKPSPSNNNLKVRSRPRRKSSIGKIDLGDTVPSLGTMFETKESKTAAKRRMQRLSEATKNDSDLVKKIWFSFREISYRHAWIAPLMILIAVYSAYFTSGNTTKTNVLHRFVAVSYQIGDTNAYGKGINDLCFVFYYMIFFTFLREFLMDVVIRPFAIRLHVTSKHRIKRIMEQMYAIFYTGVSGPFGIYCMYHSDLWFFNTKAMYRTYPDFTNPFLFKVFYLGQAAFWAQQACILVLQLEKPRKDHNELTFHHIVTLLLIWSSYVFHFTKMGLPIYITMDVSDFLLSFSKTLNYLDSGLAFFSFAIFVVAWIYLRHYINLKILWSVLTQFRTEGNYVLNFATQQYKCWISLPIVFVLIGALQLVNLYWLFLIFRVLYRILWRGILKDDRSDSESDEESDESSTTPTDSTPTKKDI
T1 sequence (Q03579 1-150 partner): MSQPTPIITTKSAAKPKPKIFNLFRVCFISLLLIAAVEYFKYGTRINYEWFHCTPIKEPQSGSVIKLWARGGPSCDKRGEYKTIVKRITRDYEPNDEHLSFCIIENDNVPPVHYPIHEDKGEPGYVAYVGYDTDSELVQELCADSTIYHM
The assay can be described thus: in vitro CerS assay, TLC fluorescence of NBD-ceramide. The assay is classed as cell-free. Particulars: labelled compound; 50 μM C26-CoA, 5 μM human ACBP1, 20 μM defatted BSA, 2 mM MgCl2, pH 7.2, 37°C; Δlag1Δsur2 lysate; read-out: apparent Km. An excerpt: in vitro CerS assay, TLC fluorescence of NBD-ceramide on Lac1 | Lag1 (Δlac1Δsur2) has a higher affinity towards PHS than Lac1 (Δlag1Δsur2) | We next determined the Km of Lag1 or Lac1 towards DHS and PHS

In the next assay the target is T2, Lag1 (Saccharomyces cerevisiae, UniProt P38703).
T2 construct: native full-length protein in cryo-milled lysate of Δlac1Δsur2 yeast; with Ceramide synthase subunit LIP1
T2 sequence (P38703 1-411): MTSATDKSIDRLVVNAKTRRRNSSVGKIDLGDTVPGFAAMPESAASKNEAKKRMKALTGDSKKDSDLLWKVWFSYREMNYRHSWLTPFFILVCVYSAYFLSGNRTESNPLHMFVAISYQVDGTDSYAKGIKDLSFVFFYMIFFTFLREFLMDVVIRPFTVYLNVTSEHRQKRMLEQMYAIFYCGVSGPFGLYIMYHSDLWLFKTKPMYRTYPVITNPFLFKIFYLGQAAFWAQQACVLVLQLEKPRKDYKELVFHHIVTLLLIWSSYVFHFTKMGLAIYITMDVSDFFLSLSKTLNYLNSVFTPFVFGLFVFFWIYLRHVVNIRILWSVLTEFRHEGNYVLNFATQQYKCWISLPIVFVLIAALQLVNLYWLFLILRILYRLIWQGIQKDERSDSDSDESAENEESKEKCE
T2 sequence (Q03579 1-150 partner): T1 sequence (Q03579 1-150 partner)
The description is as above. It counts as cell-free (lysate). Particulars: labelled compound; 50 μM C26-CoA, 5 μM human ACBP1, 20 μM defatted BSA, 2 mM MgCl2, pH 7.2, 37°C; Δlac1Δsur2 lysate; read-out: apparent Km. An excerpt: in vitro CerS assay, TLC fluorescence of NBD-ceramide on Lag1 | Lag1 (Δlac1Δsur2) has a higher affinity towards PHS than Lac1 (Δlag1Δsur2) | We next determined the Km of Lag1 or Lac1 towards DHS and PHS

In general, Km refers to the concentration of substrate that gives half-maximal velocity. As to NBD–DHS, the results for the Km at Lac1 and on Lag1 were 165 ± 56 µM and 132 ± 29 µM, respectively.

With NBD–PHS, the Km on Lac1 came out at 128 ± 52.5 µM; at Lag1, 30.5 ± 6.6 µM.
